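Cultured in 96-well plates, cells were exposed to test compound for 48 hours across five concentrations. The concentration for full growth arrest is given as TGI.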
Tests used:
Test in all cases: DTP human tumour cell line panel, 48 h
[1] = system: 786-0 renal
[2] = system: A498 renal
[3] = system: A549 NSCLC
[4] = system: ACHN renal
[5] = system: BT-549 breast
[6] = system: CAKI-1 renal
[7] = system: CCRF-CEM leukemia
[8] = system: COLO 205 colon
[9] = system: DU-145 prostate
[10] = system: EKVX NSCLC
[11] = system: HCC-2998 colon
[12] = system: HCT-116 colon
[13] = system: HCT-15 colon
[14] = system: HL-60(TB) leukemia
[15] = system: HOP-62 NSCLC
[16] = system: HOP-92 NSCLC
[17] = system: HS 578T breast
[18] = system: HT29 colon
[19] = system: IGROV1 ovarian
[20] = system: K-562 leukemia
[21] = system: KM12 colon
[22] = system: LOX IMVI melanoma
[23] = system: M14 melanoma
[24] = system: MALME-3M melanoma
[25] = system: MCF7 breast
[26] = system: MDA-MB-231 breast
[27] = system: MDA-MB-435
[28] = system: MOLT-4 leukemia
[29] = system: NCI-H226 lung
[30] = system: NCI-H23 lung
[31] = system: NCI-H460 lung
[32] = system: NCI-H522 lung
[33] = system: NCI/ADR-RES ovarian
[34] = system: OVCAR-3 ovarian
[35] = system: OVCAR-4 ovarian
[36] = system: OVCAR-5 ovarian
[37] = system: OVCAR-8 ovarian
[38] = system: PC-3 prostate
[39] = system: RPMI-8226 leukemia
[40] = system: RXF 393 renal
[41] = system: SF-268 CNS
[42] = system: SF-295 CNS
[43] = system: SF-539 CNS
[44] = system: SK-MEL-28 melanoma
[45] = system: SK-MEL-5 melanoma
[46] = system: SK-OV-3 ovarian
[47] = system: SN12C renal
[48] = system: SNB-19 CNS
[49] = system: SR leukemia
[50] = system: SW-620 colon
[51] = system: T-47D breast
[52] = system: TK-10 renal
[53] = system: U251 CNS
[54] = system: UACC-257 melanoma
[55] = system: UACC-62 melanoma
[56] = system: UO-31 renal

Measured: TGI

CC(C)(C)OC(=O)NCC(CNC(=O)OC(C)(C)C)C(N)=O
> 100 µM: [1] | [2] | [3] | [4] | [5] | [6] | [7] | [8] | [9] | [10] | [11] | [12] | [13] | [14] | [15] | [16] | [17] | [18] | [19] | [20] | [21] | [22] | [23] | [24] | [25] | [26] | [27] | [28] | [29] | [30] | [31] | [32] | [33] | [34] | [35] | [36] | [37] | [38] | [39] | [40] | [41] | [42] | [43] | [44] | [45] | [46] | [47] | [48] | [49] | [50] | [51] | [52] | [53] | [54] | [55] | [56]

From PubChem BioAssay (NCI)
